Where a name gives a salt, the structure may show the parent alone.
Experiments:
[1] = system: dsDNA (300 bp-500 bp long, containing 4 known caC sites per strand); test: caC detection of dsDNA by Illumina sequencing, one-step overnight incubation; conditions: one-step protocol, 100 mM borane, pH 4.3, 40° C., 16 h; expected beta=1; FIG. 4
Protocol: An aliquot of 2 M borane stock solution in DMF was added to a buffered solution containing calculated amount of dsDNA (300 bp-500 bp long, containing 4 known caC sites per strand), resulting in the final borane concentration of 100 mM and pH of 4.3 (0.5 M NaOAc). The reaction mixture (50 μL) was shaken at 40° C. for 16 h. Then, the samples were purified by 1.8×SPRI (pH adjusted with 1 M Tris buffer pH=9.0). The purified DNA was PCR-amplified using the NEB-Next Enzymatic Methyl-Seq kit's NEB-Next Q5U Master Mix along with IDT-ILMN NextEra UDI Index primers. Finally, 0.9×SPRI purification was performed. The DNA libraries were normalized to 2 nM and 20 pM sequenced on an Illumina NextSeq instrument. The sequencing data was analysed to extract the beta value, which reflects the percentage conversion of caC to T.
The boranes tested included 5-methylthiazole borane VM117, 3-aminopyridine borane (3 AP), 4-methylpyridine-borane (4MeP), 5-(methoxymethyl)-2,4-dimethyl-1,3-thiazole borane (VM293), and 4-hydroxymethylpyridine borane (4HMP). […] The percentage of caC sites were detected by Illumina sequencing.

[2] = system: human DNA NA12878 treated with human TET2 dioxygenase; test: caC detection by Illumina sequencing, two-step incubation; conditions: borane 40 mM or 100 mM, pH 4.3, 40° C. 2.5 hours, quench alpha-ketoglutarate, then 40° C. 18 hours; FIG. 5
Protocol: A sample of human DNA NA12878 was treated with human TET2 dioxygenase to oxidise mC to caC. The sample was purified by a 1.8×SPRI and resuspended in RSB buffer. 2 M stocks of the amine-boranes were prepared in DMF, then added to the DNA to a final concentration of 40 mM or 100 mM, along with pH 4.3 sodium acetate buffer to a final concentration of 0.5 M. For the one-step protocol, the samples were incubated at 40° C. for 18 hours and 750 rpm shaking. For the two-step protocol, the samples were incubated at 40° C. for 2.5 hours and 750 rpm shaking, then quenched with a 1 M solution of alpha-ketoglutarate at pH 4.3 (to a final concentration of 400 mM) and kept at 40° C. for 18 hours and 750 rpm shaking. After the incubation, all samples underwent a 1.8×SPRI purification after adding 1 M pH 9 TRIS to basify the pH. Libraries were then amplified via PCR using the NEB-Next Enzymatic Methyl-Seq kit's NEB-Next Q5U Master Mix along with NEBNext Multiplex Oligos for Illumina Index primers. A final 0.9×SPRI was performed, before libraries were normalized to 20 pM sequenced on an Illumina NovaSeq (2×151 cycles). The sequencing data was analysed to extract the beta value, which reflects the percentage conversion of 5mC or 5hmC to T.
The percentage caC sites were detected by Illumina sequencing.

[3] = system: 7mer oligodeoxyribonucleotide AT[5caC]GCTA; test: Reaction kinetics of caC reduction on 7mer, boranes with cationic moieties; conditions: 50 μM 7mer, 10 mM borane, NaOAc pH 4.3, 25° C.; FIG. 7
Protocol: (§1) To 45 μL of an aqueous solution of 0.111 mM 5caCpG dimer (0.1 mM final concentration) or 55.6 μM 7mer oligodeoxyribonucleotide (50 μM final concentration, sequence: AT[5caC]GCTA) or 22.2 μM 20mer oligodeoxyribonucleotide (20 μM final concentration, sequence: TTTCAGCTC[5caC]GGTCACGCTC) in 556 mM NaOAc buffer (pH 4.3, 500 mM final concentration) were added 5 μL of a stock solution of the respective borane (100 mM in DMF, 10 mM final concentration) and the reaction was incubated at 25° C. after short vortexing. Aliquots of 8 μL were taken at set time points and were quenched immediately with 4 μL alpha-ketoglutarate monosodium salt (1.0 M in H2O) and analysed by RP-UHPLC for consumption of the caC moiety in the starting material and formation of the product DHU moiety.

[4] = system: 20mer oligodeoxyribonucleotide TTTCAGCTC[5caC]GGTCACGCTC; test: Reaction kinetics of caC reduction on 20mer, boranes with cationic moieties; conditions: 20 μM 20mer, 10 mM borane, NaOAc pH 4.3, 25° C.; FIG. 7
Protocol: as §1

Row | SMILES | beta value (percentage of caC sites detected by Illumina sequencing; conversion of caC to T) [1] | beta values with two-step protocol compared with one-step protocol [2] | reaction kinetics of consumption of caC on the 7mer [3] | reaction kinetics of consumption of caC on the 20mer [4]
1 | [BH3-][n+]1cccc(N)c1 [3 AP, 3-aminopyridine borane] | ~1 |  |  | 
2 | [BH3-][n+]1ccc(CO)cc1 [4HMP, 4-Hydroxymethylpyridine borane] | ~1 |  |  | 
3 | B[n+]1csc(C)c1 [VM117, 5-methylthiazole borane] | ~1 | consistent with the value obtained with the one-step protocol |  | 
4 | B[n+]1c(C)sc(COC)c1C [VM293, 5-(methoxymethyl)-2,4-dimethyl-1,3-thiazole borane] | ~1 |  |  | 
5 | [BH3-][n+]1ccc(C)cc1 | ~1 | consistent with the value obtained with the one-step protocol |  | 
6 | C[N+](C)(C)CC(=O)NCc1ccncc1 [4AMP-Bet, 4-(Betainamidomethyl)pyridine borane (OBt/PF6 salt)] |  |  | efficient reaction kinetics of consumption of caC | efficient reaction kinetics of consumption of caC
